Assay results taken from ChEMBL document CHEMBL1133820, “Total synthesis and antifungal activity of 9-methoxystrobilurin L as the originally proposed 1,4-benzodioxan structure” (2001).
Active and inactive are the calls of the source. The rule behind the calls is not given here.

Assays:
Fusarium solani [1] = assay: Antifungal activity against Fusarium solani determined as diameter of inhibition zone at a concentration of 1 ug/disk; Not effective; type: functional, organism-based
Candida albicans [2] = assay: Antifungal activity against Candida albicans determined as diameter of inhibition zone at a concentration of 10 ug/disk; type: functional
Penicillium citrinum [3] = assay: Antifungal activity against Penicillium citrium determined as diameter of inhibition zone at a concentration of 0.1 ug/disk; Not effective; type: functional, organism-based
Penicillium citrinum [4] = assay: Antifungal activity against Penicillium citrium determined as diameter of inhibition zone at a concentration of 1 ug/disk; Not effective; type: functional, organism-based
Saccharomyces cerevisiae [5] = assay: Antifungal activity against Saccharomyces cerevisiae determined as diameter of inhibition zone at a concentration of 10 ug/disk; type: functional
Candida albicans [6] = assay: Antifungal activity against Candida albicans determined as diameter of inhibition zone at a concentration of 0.1 ug/disk; Not effective; type: functional, organism-based
Aspergillus fumigatus [7] = assay: Antifungal activity against Aspergillus fumigatus determined as diameter of inhibition zone at a concentration of 10 ug/disk; type: functional
Penicillium citrinum [8] = assay: Antifungal activity against Penicillium citrium determined as diameter of inhibition zone at a concentration of 10 ug/disk; Not effective; type: functional, organism-based
Saccharomyces cerevisiae [9] = assay: Antifungal activity against Saccharomyces cerevisiae determined as diameter of inhibition zone at a concentration of 0.1 ug/disk; Not effective; type: functional, organism-based
Fusarium solani [10] = assay: Antifungal activity against Fusarium solani determined as diameter of inhibition zone at a concentration of 10 ug/disk; Not effective; type: functional, organism-based
Saccharomyces cerevisiae [11] = assay: Antifungal activity against Saccharomyces cerevisiae determined as diameter of inhibition zone at a concentration of 1 ug/disk; Slightly effective; type: functional, organism-based
Aspergillus fumigatus [12] = assay: Antifungal activity against Aspergillus fumigatus determined as diameter of inhibition zone at a concentration of 1 ug/disk; Slightly effective; type: functional, organism-based
Candida albicans [13] = assay: Antifungal activity against Candida albicans determined as diameter of inhibition zone at a concentration of 1 ug/disk; Slightly effective; type: functional, organism-based
Aspergillus fumigatus [14] = assay: Antifungal activity against Aspergillus fumigatus determined as diameter of inhibition zone at a concentration of 0.1 ug/disk; Slightly effective; type: functional, organism-based
Fusarium solani [15] = assay: Antifungal activity against Fusarium solani determined as diameter of inhibition zone at a concentration of 0.1 ug/disk; Not effective; type: functional, organism-based
Saccharomyces cerevisiae [16] = assay: Antifungal activity against Saccharomyces cerevisiae determined as diameter of inhibition zone at a concentration of 1 ug/disk; Not effective; type: functional, organism-based
Candida albicans [17] = assay: Antifungal activity against Candida albicans determined as diameter of inhibition zone at a concentration of 1 ug/disk; Not effective; type: functional, organism-based
Saccharomyces cerevisiae [18] = assay: Antifungal activity against Saccharomyces cerevisiae determined as diameter of inhibition zone at a concentration of 10 ug/disk (expt 1); type: functional, organism-based
Penicillium citrinum [19] = assay: Antifungal activity against Penicillium citrium determined as diameter of inhibition zone at a concentration of 10 ug/disk (expt 1); type: functional, organism-based
Aspergillus fumigatus [20] = assay: Antifungal activity against Aspergillus fumigatus determined as diameter of inhibition zone at a concentration of 10 ug/disk (expt 2); type: functional, organism-based
Penicillium citrinum [21] = assay: Antifungal activity against Penicillium citrium determined as diameter of inhibition zone at a concentration of 10 ug/disk (expt 2); Not effective; type: functional, organism-based
Candida albicans [22] = assay: Antifungal activity against Candida albicans determined as diameter of inhibition zone at a concentration of 10 ug/disk (expt 2); type: functional, organism-based
Aspergillus fumigatus [23] = assay: Antifungal activity against Aspergillus fumigatus determined as diameter of inhibition zone at a concentration of 10 ug/disk (expt 1); type: functional, organism-based
Candida albicans [24] = assay: Antifungal activity against Candida albicans determined as diameter of inhibition zone at a concentration of 10 ug/disk (expt 1); type: functional, organism-based
Saccharomyces cerevisiae [25] = assay: Antifungal activity against Saccharomyces cerevisiae determined as diameter of inhibition zone at a concentration of 10 ug/disk (expt 2); type: functional, organism-based
Saccharomyces cerevisiae [26] = assay: Antifungal activity against Saccharomyces cerevisiae determined as diameter of inhibition zone at a concentration of 0.1 ug/disk; Slightly effective; type: functional, organism-based

| Molecule | Diameter of inhibition zone (Fusarium solani [1]) | Diameter of inhibition zone (Penicillium citrinum [3]) | Diameter of inhibition zone (Penicillium citrinum [4]) | Diameter of inhibition zone (Candida albicans [6]) | Diameter of inhibition zone (Penicillium citrinum [8]) | Diameter of inhibition zone (Saccharomyces cerevisiae [9]) | Diameter of inhibition zone (Aspergillus fumigatus [14]) | Diameter of inhibition zone (Fusarium solani [15]) | also measured |
| --- | --- | --- | --- | --- | --- | --- | --- | --- | --- |
| C=CC(C)(C)OC(C)(C)[C@H]1COc2ccc(/C=C/C(OC)=C(C)\C(=C/OC)C(=O)OC)cc2O1 | inactive | inactive | inactive | inactive | inactive | inactive | Slightly effective | inactive | Diameter of inhibition zone (Candida albicans [2]): 8 mm; Diameter of inhibition zone (Saccharomyces cerevisiae [5]): 8 mm; Diameter of inhibition zone (Aspergillus fumigatus [7]): 8 mm; Diameter of inhibition zone (Fusarium solani [10]): inactive; Diameter of inhibition zone (Saccharomyces cerevisiae [11]): Slightly effective; Diameter of inhibition zone (Aspergillus fumigatus [12]): Slightly effective; Diameter of inhibition zone (Candida albicans [13]): Slightly effective |
| C=CC(C)(C)OC(C)(C)[C@@H]1COc2ccc(/C=C/C(OC)=C(C)\C(=C/OC)C(=O)OC)cc2O1 | inactive | inactive | inactive | inactive | inactive | inactive | Slightly effective | inactive | Diameter of inhibition zone (Saccharomyces cerevisiae [16]): inactive; Diameter of inhibition zone (Candida albicans [17]): inactive |
| NYSTATIN | – | – | – | – | – | – | – | – | Diameter of inhibition zone (Saccharomyces cerevisiae [18]): 17 mm; Diameter of inhibition zone (Penicillium citrinum [19]): 10 mm; Diameter of inhibition zone (Aspergillus fumigatus [20]): 8 mm; Diameter of inhibition zone (Penicillium citrinum [21]): inactive; Diameter of inhibition zone (Candida albicans [22]): 10 mm; Diameter of inhibition zone (Aspergillus fumigatus [23]): 12 mm; Diameter of inhibition zone (Candida albicans [24]): 16 mm; Diameter of inhibition zone (Saccharomyces cerevisiae [25]): 8 mm |
| C=CC(C)(C)O[C@H]1COc2ccc(/C=C/C(OC)=C(C)\C(=C\OC)C(=O)OC)cc2OC1(C)C | – | inactive | inactive | inactive | – | – | Slightly effective | inactive | Diameter of inhibition zone (Saccharomyces cerevisiae [26]): Slightly effective |
